Laboratory results taken from paper PMC12417622 (Biopharmaceutics & Drug Disposition, 2025).
Read-outs that look alike come from different tables or passages of the source. One block for each molecule: values may come before it.

What was measured:
[1] = Cmax of febuxostat after oral administration in human; format: in vivo; details: 40–120 mg febuxostat orally, estimated from Cmax and protein binding
[2] = set-up: method as in review report of febuxostat (Feburic Tablet); details: rats, 5 min after febuxostat 1 mg/kg i.v.; ref review report of febuxostat (Feburic Tablet); cited from earlier work
[3] = set-up: method as in Yu et al. [2023]; details: rats; ref Yu et al. [2023]; cited from earlier work
[4] = set-up: method as in Zhang et al. [2014]; details: human, 40–120 mg febuxostat orally; ref Zhang et al. [2014]; cited from earlier work
hOAT3 [5] = target: T1, hOAT3 (Homo sapiens, UniProt Q8TCC7); experiment: Inhibition of hOAT3-mediated methotrexate transport by febuxostat in HEK-hOAT3 cells (inhibition plot, Dixon plot); format: cell-based; set-up: expressed in transfected cells; host or cells: HEK293 (HEK-hOAT3), gift of Dr. Atsushi Yonezawa, Kyoto University Hospital; mock control HEK-pBK (pBKCMV vector)
T1 sequence (Q8TCC7 1-542): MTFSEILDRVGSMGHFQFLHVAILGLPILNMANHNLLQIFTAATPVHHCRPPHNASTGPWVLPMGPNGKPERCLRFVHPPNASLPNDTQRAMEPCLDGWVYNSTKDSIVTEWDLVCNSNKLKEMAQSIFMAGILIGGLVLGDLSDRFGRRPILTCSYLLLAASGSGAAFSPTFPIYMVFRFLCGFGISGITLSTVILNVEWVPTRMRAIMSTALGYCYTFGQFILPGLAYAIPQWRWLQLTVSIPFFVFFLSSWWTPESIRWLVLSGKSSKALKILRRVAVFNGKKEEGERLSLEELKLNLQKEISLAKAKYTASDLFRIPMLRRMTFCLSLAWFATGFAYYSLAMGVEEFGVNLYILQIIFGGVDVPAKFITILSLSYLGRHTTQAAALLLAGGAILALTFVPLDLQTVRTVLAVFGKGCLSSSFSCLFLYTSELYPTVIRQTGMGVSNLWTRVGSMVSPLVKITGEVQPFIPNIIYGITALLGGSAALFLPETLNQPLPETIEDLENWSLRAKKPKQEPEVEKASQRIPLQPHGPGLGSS
Experimental: (§1) The entire LC gradient was 16 min.

hOAT3 [6] = target: T1, hOAT3; set-up: expressed in transfected cells; host or cells: HEK293 (HEK-hOAT3), gift of Dr. Atsushi Yonezawa, Kyoto University Hospital; mock control HEK-pBK (pBKCMV vector); details: cited from earlier work; for Ki: read-out: Ki against hOAT3
[7] = Pharmacokinetics of methotrexate after intravenous administration with and without febuxostat in rats; format: in vivo, rat; details: for Vd / half-life / k el / AUC(0-t) / clearance: male, Wistar, rat, plasma, iv, 2 mg/kg, methotrexate 2 mg/kg i.v., mean ± S.D.; for Vd / half-life / k el: n = 4; for AUC(0-t): n = 4, read-out: AUC0–90 min (converted); for clearance: n = 4, read-out: CLtot
Text: Nine‐week‐old male Wistar rats (SLC Japan Co., Shizuoka, Japan) were used for the pharmacokinetics study. All animal procedures were approved by the Animal Experiments Committee of The University of Osaka (No. 03‐018‐000) and conducted in accordance with the Japanese Law for the Protection and Management of Animals, the Standards Relating to the Care and Management of Laboratory Animals and Relief of Pain, and other relevant regulations and guidelines for animal experimentation. The rats were anesthetized with an intraperitoneal injection of a mixture of medetomidine, midazolam, and butorphanol at doses of 0.38, 2.0, and 2.5 mg/kg, respectively. Polyethylene catheters were implanted into the femoral vein and femoral artery to administer the drug and facilitate frequent blood collection. […] The area under the plasma concentration–time curve from 0 to 90 min (AUC0–90 min) was calculated using the trapezoidal rule. Moreover, the systemic clearance (CLtot), elimination rate constant from the central compartment (Kel), distribution volume of the central compartment (Vd), and half‐life (T1/2) were calculated according to the procedures for 2‐compartmental analysis.
as §1

hOAT3 [8] = target: T1, hOAT3; details: 10 μM methotrexate, 2, 5, 10 and 15 min, 37°C, all time points
Experimental: These cells were cultured in complete medium consisting of Medium 199 (Life Technologies, Carlsbad, CA) supplemented with 10% fetal bovine serum containing G418 (0.5 mg/mL; FUJIFILM WAKO Pure Chemical) and were used between passage numbers 95 and 115. These cells were maintained at 37°C under 5% CO2 in a humidified atmosphere.
The cells (12 × 10^5 cells/dish) were seeded in 3.5 cm dishes with culture medium in the absence of G418. After 48 h of culture, cell monolayers were utilized for uptake study. […] The composition of the incubation medium was as follows: 145 mM NaCl, 3 mM KCl, 1 mM CaCl2, 0.5 mM MgCl2, 5 mM D‐glucose, and 5 mM HEPES (pH 7.4). […] To assess intracellular 6‐CF accumulation, the cells were solubilized in 1 N NaOH and fluorescence was measured using a fluorescence spectrophotometer (SH‐9000lab, CORONA, Ibaraki, Japan) at 495 nm excitation/517 nm emission. The protein content of the solubilized cells was measured using a BCA protein assay kit (Thermo Fisher Scientific, Waltham, MA).
The UPLC‐MS/MS system was applied with the ACQUITY HPLC H‐class/ACQUITY TQD system with electrospray ionization (Waters, Milford, MA). 10 μL of 100 ng/mL pemetrexed, utilized as an internal standard (IS), was added to the samples (100 μL). The samples (10 μL) were then subjected to UPLC‐MS/MS. […]

[9] = set-up: method as in Bleyer [1978]; details: within 30 h of administration; ref Bleyer [1978]; cited from earlier work
rOAT3 = system: rOAT3; set-up: method as in Nozaki et al. [2004]; details: rat kidney slices; ref Nozaki et al. [2004]; cited from earlier work
hOAT3 [10] = target: T1, hOAT3; experiment: Uptake of 6-CF in HEK-pBK and HEK-hOAT3 cells and its inhibition by probenecid; format: cell-based; set-up: expressed in transfected cells; host or cells: HEK293 (HEK-hOAT3), gift of Dr. Atsushi Yonezawa, Kyoto University Hospital; mock control HEK-pBK (pBKCMV vector); details: 5 μM 6-CF, 2 min, 37°C
Experimental: The cells were incubated for 2 min at 37°C with 5 µM 6‐CF (pH 7.4) in the absence or presence of probenecid (100 µM).

[11] = substrate: CN(Cc1cnc2nc(N)nc(N)c2n1)c1ccc(C(=O)N[C@@H](CCC(=O)O)C(=O)O)cc1; experiment: cells, lysate or membranes named; details: other: 2 min, 37°C, pH 7.4, uptake in HEK-pBK subtracted from HEK-hOAT3, mean ± S.E.
[12] = HEK-hOAT3 cells, estron-3-sulfate as substrate, ref Tang et al. [2022]

Molecule: Cc1nc(-c2ccc(OCC(C)C)c(C#N)c2)sc1C(=O)O[C@@H]1O[C@H](C(=O)O)[C@@H](O)[C@H](O)[C@H]1O [febuxostat acyl‐β‐D‐glucuronide]
inhibitory type against hOAT3 (hOAT3 [6]; [12]): competitive | Ki (hOAT3 [6]; [12]): 6.11 µM

Molecule: O=C(O)c1ccc(C(=O)O)c(-c2c3ccc(=O)cc-3oc3cc(O)ccc23)c1 [6‐CF, 6‐carboxyfluorescein]
Uptake in HEK-hOAT3 cells relative to HEK-pBK cells (hOAT3 [10]; pH 7.4): approximately 17.4 fold

B1: hOAT3 (Homo sapiens) (protein)
chain: MTFSEILDRVGSMGHFQFLHVAILGLPILNMANHNLLQIFTAATPVHHCRPPHNASTGPWVLPMGPNGKPERCLRFVHPPNASLPNDTQRAMEPCLDGWVYNSTKDSIVTEWDLVCNSNKLKEMAQSIFMAGILIGGLVLGDLSDRFGRRPILTCSYLLLAASGSGAAFSPTFPIYMVFRFLCGFGISGITLSTVILNVEWVPTRMRAIMSTALGYCYTFGQFILPGLAYAIPQWRWLQLTVSIPFFVFFLSSWWTPESIRWLVLSGKSSKALKILRRVAVFNGKKEEGERLSLEELKLNLQKEISLAKAKYTASDLFRIPMLRRMTFCLSLAWFATGFAYYSLAMGVEEFGVNLYILQIIFGGVDVPAKFITILSLSYLGRHTTQAAALLLAGGAILALTFVPLDLQTVRTVLAVFGKGCLSSSFSCLFLYTSELYPTVIRQTGMGVSNLWTRVGSMVSPLVKITGEVQPFIPNIIYGITALLGGSAALFLPETLNQPLPETIEDLENWSLRAKKPKQEPEVEKASQRIPLQPHGPGLGSS
Km [11]: 46.4 ± 9.2 µM | Vmax [11]: 287 ± 26 pmol/mg protein/min

Second part, led by results:

unbound Cmax (clinical concentration) [1]: 0.12 to 0.30 µM | IC50 (hOAT3 [5]): 650 ± 130 nM | Ki (hOAT3 [5]): 630 ± 10 nM | inhibitory type against hOAT3-mediated transport of methotrexate (hOAT3 [5]; Dixon plot, HEK-hOAT3 cells): noncompetitive | ratio of unbound Cmax to Ki value (hOAT3 [5]; human unbound Cmax 0.12–0.30 μM, Ki against hOAT3 0.63 μM): 0.19–0.48
Molecule: Cc1nc(-c2ccc(OCC(C)C)c(C#N)c2)sc1C(=O)O [febuxostat]
plasma concentration of febuxostat [2]: approximately 24.1 μM | protein binding [3]: 98.4% | Cmax [4]: 5.3 to 13.5 µM | Ki (hOAT3 [6]; ref Tang et al. ([2022])): 0.55 ± 0.15 µM

Vd ([7]; febuxostat (+) 1 mg/kg i.v.): 0.433 ± 0.088 L/kg | half-life ([7]; febuxostat (+) 1 mg/kg i.v.): 14 ± 4.6 min | k el ([7]; febuxostat (+) 1 mg/kg i.v.): 0.000833 s⁻¹ | AUC(0-t) ([7]; febuxostat (+) 1 mg/kg i.v.): 4350 ng·h/mL | clearance ([7]; febuxostat (+) 1 mg/kg i.v.): 8.02 ± 2.03 mL/min/kg | Vd ([7]; febuxostat (−)): 0.378 ± 0.061 L/kg | half-life ([7]; febuxostat (−)): 6.4 ± 1.4 min | k el ([7]; febuxostat (−)): 0.00183 s⁻¹ | AUC(0-t) ([7]; febuxostat (−)): 2170 ng·h/mL | clearance ([7]; febuxostat (−)): 15.9 ± 3.56 mL/min/kg | Plasma concentration of methotrexate with concomitant febuxostat ([7]; methotrexate 2 mg/kg i.v. with febuxostat 1 mg/kg i.v. vs without, at 15, 30, 60 and 90 min): significantly increased | Uptake in HEK-hOAT3 cells compared with HEK-pBK cells (hOAT3 [8]): significantly higher
Molecule: CN(Cc1cnc2nc(N)nc(N)c2n1)c1ccc(C(=O)N[C@@H](CCC(=O)O)C(=O)O)cc1 [methotrexate]
excreted in urine as unchanged drug [9]: approximately 95% | share of renal basolateral uptake for which rOAT3 is responsible (rOAT3): approximately 50%

Effect on uptake of 6-CF in HEK-hOAT3 cells (hOAT3 [10]; 100 μM probenecid): potently inhibited
Molecule: CCCN(CCC)S(=O)(=O)c1ccc(C(=O)O)cc1 [probenecid]
